The test system of test [1] is H1373 cells. Briefly: 7-AAD assay in H1373 cells. Format: cell-based, human. Particulars: H1373 (p53 null), 48 h after transfection. How it is done:
(§1) Transfected T47D, MCF-7, MDA-MB-231, HeLa and H1373 cells were pelleted and resuspended in 500 μL PBS (Invitrogen) containing 1 μM 7-aminoactinomycin D (7-AAD) (Invitrogen) for 30 min prior to analysis following the recommended protocol from the manufacturer. The assay was performed 48 h after transfection for T47D, MCF-7 and H1373 and 24 h after transfection for MDA-MB-231 and HeLa. Only EGFP positive cells were analyzed by using the FACS Canto-II (BD-BioSciences) with FACS Diva software. EGFP and 7-AAD were excited with the 488 nm laser, and were detected at 507 nm and 660 nm, respectively. Independent transfections of each construct were tested three times (n=3).
(§2) Transfected T47D, H1373, SKOV-3 and HeLa cells were pelleted and re-suspended in 500 μL PBS (Invitrogen) containing 1 μM 7-aminoactinomycin D (7-AAD) (Invitrogen) for 30 min prior to analysis. T47D and H1373 cells were analyzed 48 h after transfection, while SKOV-3 and HeLa cells were analyzed 24 h after transfection (time points optimized empirically). Only EGFP positive cells were assayed using the FACS Canto-II (BD-BioSciences) with FACS Diva software as previously. EGFP and 7-AAD were excited at 488 nm, and detected at 507 nm and 660 nm, respectively. Independent transfections of each construct were assayed three times (n=3). The highest value (EGFP positive cells stained with 7-AAD) was set at 100%, and the lowest at 0% (relative 7-AAD) as previously.

The next test has as its system MCF-7. In words: 7-AAD assay in MCF-7 cells. It is filed as cell-based, human. Particulars: MCF-7, 48 h post transfection. How it is done: as §1
In test [2] the test system is T47D cells. In words: Colony forming assay in T47D cells. Particulars: eight days after treatment. It is filed as cell-based, human. Here is the method: Transfected T47D cells were harvested 24 h post transfection and resuspended in RPMI (Invitrogen) at a concentration of 3.0×10^5 cells/mL. The Cytoselect® 96-well cell transformation assay (Cell Biolabs, San Diego, Calif.) was used following manufacturer's recommendations. Equal amount of 1.2% Agar Solution, 2×DMEM/20% FBS media, and cell suspension (1:1:1) were mixed and 75 μL of the mixture was added to a 96-well plate containing a solidified base agar layer (50 μL of previously solidified 1.2% Agar Solution), and allowed to solidify at 4° C. for 15 min. The following steps were performed according to the manufacture's recommendations. A Spectra Max M2 plate reader (Molecular Devices, Sunnyvale, Calif.) was used to detect fluorescence using a 485/520 nm filter set. Independent transfections of each construct were tested three times (n=3).

In test [3] the test system is T47D cells. In words: TUNEL assay in T47D cells. Format: cell-based, human. The settings on record: 48 h after transfection. Here is the method: T47D cells were harvested 48 h after transfection. In situ Death Detection Kit, TMR red (Roche, Mannheim, Germany) was used following manufacturer's recommendations as before. Cells were resuspended in PBS (Invitrogen) and analyzed via the FACSAria-II (BD-Biosciences, University of Utah Core Facility). EGFP and TMR red were excited at 488 nm and 563 nm, respectively, and FACSDiva software was used to analyze the data. Independent transfections of each construct were tested three times (n=3).

A further test relates to HeLa cells. In words: 7-AAD assay in HeLa cells. Format: cell-based, human. Particulars: 24 h after transfection. Here is the method: as §1, §2
The test system of test [4] is H1373 cells. In words: 7-AAD rescue experiment in H1373 cells with or without p53R248Wmut. Format: cell-based, human. Particulars: H1373, 48 h post transfection; for apoptotic activity (7-AAD) when co-transfected with p53R248Wmut: dominant negative mutant overexpressed. How it is done:
E-XL was created by inserting MTS from XL into EGFP-C1 vector. Lipofectamine was used as the transfection reagent as before. 48 h post transfection, cells were stained as described in the 7-AAD assay and gated for EGFP and BFP using the FACSCanto-II (BD-BioSciences) and FACSDiva software. Excitation for BFP was set at 405 nm and detected at 457 nm. The means from three separate experiments (n=3) were analyzed using two-way ANOVA with Bonferroni's post hoc test.

Test [5] relates to T47D cells. Briefly: 7-AAD assay in T47D cells. The settings on record: 48 h after transfection, EGFP positive cells only. Format: cell-based, human. Here is the method:
as §1, §2

Test [6] has as its system T47D cells. In words: Annexin V assay in T47D cells. It is filed as cell-based, human. Particulars: 48 h after transfection. How it is done: 48 h after transfection, T47D cells were pelleted and resuspended in 400 μL of annexin-V binding buffer (Invitrogen) and incubated with 5 μL of annexin-APC (annexin-V conjugated to allophycocyanin, Invitrogen) for 15 min as before. Only transfected cells were analyzed as mentioned in 7-AAD assay. EGFP and APC were excited at 488 nm and 635 nm wavelengths, respectively and detected at their corresponding 507 nm and 660 nm wavelengths. Independent transfections of each construct were tested three times (n=3).

In the next test the test system is MDA-MB-231. Briefly: 7-AAD assay in MDA-MB-231 cells. It is filed as cell-based, human. Particulars: MDA-MB-231, 24 h after transfection. How it is done: as §1
Test [7] deals with T47D cells. In words: Rescue experiment using BFP-Bcl-XL (7-AAD) in T47D cells. Format: cell-based, human. Particulars: 48 h after transfection, Bcl-XL overexpression. How it is done:
T47D cells were co-transfected with 1 pmol of EGFP constructs and 1 pmol of BFP-Bcl-XL (BFP tag is necessary for gating Bcl-XL transfected cells). 48 h after transfection the 7-AAD assay was performed as described above. FACSCanto-II (BD-BioSciences) and FACSDiva software were used for EGFP and BFP gating. Excitation was set at 488 nm, and detected at 507 nm and 660 nm for EGFP and 7-AAD, respectively. BFP was excited at 405 nm and detected at 457 nm. Independent transfections of each construct were tested three times (n=3).

Test [8] concerns T47D cells. In words: Caspase-9 assay (SR FLICA) in T47D cells. Format: cell-based, human. Particulars: 48 h after transfection. How it is done: T47D cells were probed 48 h after transfection using SR FLICA Caspase-9 Assay Kit (Immunochemistry Technologies, Bloomington, Minn.). Cells were incubated with SR FLICA Caspase-9 reagent for 60 min per manufacturer's recommendations, pelleted and resuspended in 300 μL 1× wash buffer (Immunochemistry Technologies). Only EGFP positive cells were analyzed by using the FACS Canto-II (BD-BioSciences) with FACS Diva software. EGFP and FLICA were excited with the 488 nm (emission filter 530/35) and the 561 laser (emission filter 585/15), respectively. Independent transfections of each construct were tested three times (n=3).
As previously described, 48 h after transfection, T47D cells were tested with SR FLICA Caspase-9 Assay Kit (Immunochemistry Technologies, Bloomington, Minn.). Cells were incubated with SR FLICA Caspase-9 reagent for 60 min, pelleted and re-suspended in 300 μL, 1× wash buffer (Immunochemistry Technologies). The FACS Canto-II with FACS Diva software was used to analyzed only EGFP positive cells stained with caspase-9, both were excited with the 488 nm (emission filter 530/35) and the 561 nm laser (emission filter 585/15), respectively. Independent transfections of each construct were assayed three times (n=3). The highest value (EGFP positive cells stained with caspase-9) was set as 100% and the lowest as 0% (relative caspase-9).

The test system of a further test is p53-Luc Cis-Reporter. Briefly: p53 reporter gene (dual luciferase) assay in T47D cells. It is filed as cell-based, human. Particulars: 24 h post transfection. Here is the method:
Luminescence was detected 24 h post transfection using PlateLumino (Stratec Biomedical Systems, Birkenfeld, Germany). Independent transfections of each constructs were assayed three times (n=3). The highest value was set at 100% and lowest value (untreated cells) was set as 0% (relative luminescence).

The subject of test [9] is T47D cells. In words: TMRE assay (MOMP) in T47D cells. Format: cell-based, human. The settings on record: 36 h after transfection. Here is the method: 36 h after transfection T47D cells were incubated with 100 nM tetramethylrhodamineethylester (TMRE) (Invitrogen) for 30 min at 37° C. T47D cells were pelleted and resuspended in 300 μL annexin-V binding buffer (1×) (Invitrogen). Only EGFP positive cells were analyzed by using the FACS Canto-II (BD-BioSciences) with FACS Diva software. EGFP was excited with the 488 nm laser with emission filter 530/35 and TMRE was excited with the 561 nm laser with the emission filter 585/15. Mitochondrial depolarization (loss in TMRE intensity) correlates with an increase in MOMP. Independent transfections of each construct were tested three times (n=3).
36 h after transfection T47D cells were incubated with 100 nM tetramethylrhodamine, ethylester (TMRE) (Invitrogen) for 30 min at 37° C., pelleted and resuspended in 300 μL annexin-V binding buffer (1×) (Invitrogen). The FACS Canto-II with FACS Diva software was used to analyze only EGFP positive cells (excited at 488 nm with emission 530/35) stained with TMRE (excited at 561 nm laser with the emission 585/15). Loss in TMRE intensity represents mitochondrial depolarization, which correlates with an increase in mitochondrial outer membrane permeabilization (MOMP). Independent transfections of each construct were assayed three times (n=3). The highest MOMP value was set as 100% and the lowest as 0% (relative MOMP) as before.

The test system of another test is SKOV-3 cells. Briefly: 7-AAD assay in SKOV-3 cells. Format: cell-based, human. The settings on record: SKOV-3 (p53 null), 24 h after transfection. Here is the method: as §2
Another test deals with T1, endogenous Bcl-XL (Homo sapiens, UniProt Q07817).
T1 construct: endogenous in cells; host or cells: T47D human breast tumor cells
In words: Co-immunoprecipitation with anti-GFP antibody, western blot for Bcl-XL. It is filed as binding. Particulars: T47D lysate 24 h post transfection, anti-GFP pull-down. How it is done:
Anti-GFP antibody (ab290, Abcam) was coupled to dynabeads using Dynabeads Antibody Coupling Kit (Invitrogen). 24 h post transfection, T47D cells were prepared using the Dynabeads Co-Immunoprecipitation Kit (Invitrogen). Cell pellets were lysed using extraction buffer B (1×IP, […] NaCl, 2 mM MgCl2, 1 mM DTT, 1% protease inhibitor). The lysate was incubated for 30 min at 4° C. with 1.5 mg of dynabeads coupled with anti-GFP antibody, and co-IP was performed per the company's protocol. The final protein complex was denatured and western blot was performed by using Bcl-XL antibody (ab 2568, Abcam).

“Also recorded” adds a separate entry of the source.

As to “DBD-XL: EGFP, DNA binding domain of p53 and MTS from Bcl-XL”, the “7-AAD positive cells (late apoptosis)” value in the test with H1373 cells [1] is reported as “significantly higher apoptotic activity compared to p53-XL”; in the test on MCF-7 it was “significantly higher apoptotic activity compared to p53-XL”; in the test on HeLa cells it was “statistically significant from p53-XL”; with T47D cells [5], “statistically higher than the negative control E-XL; also recorded: not statistically significant from each other”; in the test on MDA-MB-231, “significantly higher apoptotic activity compared to p53-XL”. In addition, the “transformative ability (colonies, relative fluorescence units)” value in the test with T47D cells [2] was “significant decrease in transformative ability”. Further, in the test on T47D cells [3], the “TUNEL positive cells (DNA fragmentation)” value is “not statistically significant from each other”. In addition, the “apoptosis (7-AAD) in the absence of p53R248Wmut” value in the test on H1373 cells [4] is “significantly higher apoptosis compared to their negative controls E-XL and EGFP”. Besides, in the test on H1373 cells [4], the “apoptotic activity (7-AAD) when co-transfected with p53R248Wmut” value was “capable of rescuing apoptotic activity”. In the test on T47D cells [6], the “Annexin V positive cells (apoptotic potential)” value was “significantly higher apoptotic response than p53-XL; also recorded: significantly higher than the negative control E-XL”. Besides, the “apoptotic activity (7-AAD) on cotransfection of BFP-Bcl-XL (rescue)” value with T47D cells [7] is “significantly reduced”. Also, in the test on T47D cells [8], the caspase-9 activation entry was “higher caspase-9 activation than E-XL”.

As to “p53-BakMTS: MTS from Bak fused to the C-terminus of EGFP-p53”, the “7-AAD positive cells (late apoptosis)” value is “statistically higher from their negative control E-BakMTS” in the test on H1373 cells [1], “significant from their corresponding negative controls” in the test on HeLa cells, “significant apoptotic effect compared to their corresponding negative controls; also recorded: significantly higher apoptosis compared to cells transfected with MTS negative controls; also recorded: induce apoptosis similarly to wt p53” with T47D cells [5] and “significantly higher than their negative control E-BakMTS” with SKOV-3 cells. Further, the “nuclear transcriptional activity (relative luminescence)” value in the test on p53-Luc Cis-Reporter was “no nuclear activity”. Besides, in the test on T47D cells [9], the “% MOMP induction (loss of TMRE fluorescence)” value was “not significantly higher from wt p53”. Moreover, the caspase-9 activation result with T47D cells [8] is given as “significant effect; also recorded: not significantly higher from wt p53”.

With “p53-XL: full length p53 with EGFP on the amino terminus and the MTS from Bcl-XL (XL) on the C-terminus”, in the test with T47D cells [2], the “transformative ability (colonies, relative fluorescence units)” value is listed as “significant decrease in transformative ability”. Further, the “TUNEL positive cells (DNA fragmentation)” value in the test on T47D cells [3] is listed as “not statistically significant from each other”. Besides, in the test on H1373 cells [4], the “apoptosis (7-AAD) in the absence of p53R248Wmut” value was “significantly higher apoptosis compared to their negative controls E-XL and EGFP”; the “apoptotic activity (7-AAD) when co-transfected with p53R248Wmut” value is given as “capable of rescuing apoptotic activity”. Moreover, in the test on T47D cells [5], the “7-AAD positive cells (late apoptosis)” value is reported as “not statistically significant from each other”. In addition, in the test with T47D cells [6], the “Annexin V positive cells (apoptotic potential)” value is given as “significantly higher than the negative control E-XL”. Further, the “apoptotic activity (7-AAD) on cotransfection of BFP-Bcl-XL (rescue)” value with T47D cells [7] is reported as “significantly reduced”. Further, the “co-immunoprecipitation with Bcl-XL” value with endogenous Bcl-XL is reported as “co-immunoprecipitated; also recorded: co-immunoprecipitates with endogenous Bcl-XL”. In addition, in the test with T47D cells [8], the caspase-9 activation entry is recorded as “higher caspase-9 activation than E-XL; also recorded: triggers caspase-9 activation significantly more than DBD-XL”.

For the origin of these results see US20160347807A1, “TARGETING P53 AND ITS DNA-BINDING DOMAIN” (UNIVERSITY OF UTAH RESEARCH DOUNDATION, priority 2014, published 2016).
